Type in all cases: cell-based
The target of assay [1] is T1, PSEN1 F388A–APH1A γ-secretase complex (Homo sapiens, UniProt P49768, F388A).
T1 construct: expressed in transfected cells; host or cells: Psen1/2 double KO/Aph1ABC triple KO MEFs, pools without clonal selection
Put plainly: Aβ40 secretion, MEF cell pool restored with PSEN1 F388A–APH1A. The following applies: decimal comma; for IC50: PSEN1 F388A (TM7)–APH1A cell pool, N = 3 to 4, mean (95% CI). How it is done:
(§1) We turned to experimental site–directed mutagenesis and selected a series of amino acids (Fig. 3) in the entrance channel for mutation to alanine. […] More importantly, they were all enzymatically active as shown by the secretion of Aβ40 in the supernatants of the cell cultures (Fig. 3B).
(§2) Conditional Psen1/2 double KO mice were crossed with conditional Aph1ABC triple KO mice ([29], [52], [58], [59]). At embryonic day 7.5, embryos were dissected and dissociated, and cells were plated in the presence of Dulbecco’s modified Eagle’s medium (DMEM)/F12 50% fetal calf serum (FCS) (Invitrogen). Primary MEFs were immortalized by transduction with LargeT antigen. Psen1/2 double KO/Aph1ABC triple KO MEFs were generated by transduction with a Cre-GFP–expressing adenoviral vector, and GFP-positive MEFs were sorted by fluorescence-activated cell sorting analysis. Psen1/2 Aph1ABC-deficient MEFs were maintained in DMEM/f12 10% FCS. To rescue γ-secretase expression, Psen1/2 double KO/Aph1ABC triple KO MEFs were transduced using Murine Stem Cell Virus retroviral vector system (pMSCV) viral vectors (Clontech) containing the human coding sequences of the different PSEN and APH1 homologs and the zeocin selection marker. An Internal Ribosome Entry Site sequence was cloned between the coding sequences for PSEN and APH1 to ensure co-expression of both proteins. Stable transfected cell lines were selected using 500-μg/ml zeocin (Invitrogen). Four different combinations were made: PSEN1 and APH1AL, PSEN1 and APH1B, PSEN2 and APH1AL, and PSEN2 and APH1B. These cell lines were transduced with pMSCV viral vectors (Clontech) expressing APP-C99-GFP-puromycin. […]
(§3) The number of plated cells and incubation times were determined in respect to linearity of Aβ peptide secretion, the dynamic range of Aβ peptide quantification in the medium, and sensitivity to dimethylsulfoxide (DMSO). […] The cell viability was assessed using the CellTiter-Glo Luminescent assay (Promega) that measures ATP production. […] We however measured five compounds at the Leuven site and noticed that absolute IC50 values were different (Fig. S2). […]

Assay [2] has as its target T2, PSEN1 I168A–APH1A γ-secretase complex (Homo sapiens, UniProt P49768, I168A).
T2 construct: expressed in transfected cells; host or cells: Psen1/2 double KO/Aph1ABC triple KO MEFs, pools without clonal selection
Kind of assay: Aβ40 secretion, MEF cell pool restored with PSEN1 I168A–APH1A. The following applies: decimal comma; for IC50: PSEN1 I168A (TM3)–APH1A cell pool, N = 3 to 4, mean (95% CI). The procedure: as §1, §2, §3

The target of assay [3] is T3, PSEN1 L173A–APH1A γ-secretase complex (Homo sapiens, UniProt P49768, L173A).
T3 construct: expressed in transfected cells; host or cells: Psen1/2 double KO/Aph1ABC triple KO MEFs, pools without clonal selection
Kind of assay: Aβ40 secretion, MEF cell pool restored with PSEN1 L173A–APH1A. Conditions: decimal comma; for IC50: PSEN1 L173A (TM3)–APH1A cell pool, N = 3 to 4, mean (95% CI). How it is done:
as §1, §2, §3

For assay [4], the target named is T4, PSEN1 L172A–APH1A γ-secretase complex (Homo sapiens, UniProt P49768, L172A).
T4 construct: expressed in transfected cells; host or cells: Psen1/2 double KO/Aph1ABC triple KO MEFs, pools without clonal selection
Kind of assay: Aβ40 secretion, MEF cell pool restored with PSEN1 L172A–APH1A. Conditions: for increase in binding affinity by alanine substitution of L172: PSEN1 L172A versus WT. The procedure: as §1
(§4) Conditional Psen1/2 double KO mice were crossed with conditional Aph1ABC triple KO mice ([29], [52], [58], [59]). At embryonic day 7.5, embryos were dissected and dissociated, and cells were plated in the presence of Dulbecco’s modified Eagle’s medium (DMEM)/F12 50% fetal calf serum (FCS) (Invitrogen). Primary MEFs were immortalized by transduction with LargeT antigen. Psen1/2 double KO/Aph1ABC triple KO MEFs were generated by transduction with a Cre-GFP–expressing adenoviral vector, and GFP-positive MEFs were sorted by fluorescence-activated cell sorting analysis. Psen1/2 Aph1ABC-deficient MEFs were maintained in DMEM/f12 10% FCS. To rescue γ-secretase expression, Psen1/2 double KO/Aph1ABC triple KO MEFs were transduced using Murine Stem Cell Virus retroviral vector system (pMSCV) viral vectors (Clontech) containing the human coding sequences of the different PSEN and APH1 homologs and the zeocin selection marker. An Internal Ribosome Entry Site sequence was cloned between the coding sequences for PSEN and APH1 to ensure co-expression of both proteins. Stable transfected cell lines were selected using 500-μg/ml zeocin (Invitrogen). Four different combinations were made: PSEN1 and APH1AL, PSEN1 and APH1B, PSEN2 and APH1AL, and PSEN2 and APH1B. These cell lines were transduced with pMSCV viral vectors (Clontech) expressing APP-C99-GFP-puromycin. After puromycin selection (5 μg/ml), GFP-positive cells were selected through FACS sorting. For the alanine mutagenesis experiment, pMSCV PSEN1-APH1A viral vectors were generated by using a long PCR-based QuikChange strategy (Stratagene). Stable cell lines without clonal selection were generated for each mutant as described above. All cell lines were regularly tested for the absence of mycoplasma and used for maximum 20 passages in culture.
(§5) The number of plated cells and incubation times were determined in respect to linearity of Aβ peptide secretion, the dynamic range of Aβ peptide quantification in the medium, and sensitivity to dimethylsulfoxide (DMSO). […] MEF cells were plated in DMEM F12 supplemented with 10% FCS at 10,000 cells per well in 96-well clear bottom plates in the late afternoon and cultured for 16 h at 37 °C, 5% CO2. In the morning of the second day, the medium was replaced with 60 μl of DMEM/F12 supplemented with 2% FCS, and GSI or DMSO (controls) were added. Compounds were tested in serial dilutions with concentrations ranging from […] to 0.1 nM with 3-fold changes. The final concentration of DMSO in all wells was 0.2%. Plates were put in the incubator again at 37 °C, 5% CO2. After 8 h, the culture media were collected, and 30 μl was used to measure Aβ40 peptides. The cell viability was assessed using the CellTiter-Glo Luminescent assay (Promega) that measures ATP production. All screens were performed at one site, and reported IC50 values throughout the manuscript are from this site (Beerse) unless otherwise indicated. We however measured five compounds at the Leuven site and noticed that absolute IC50 values were different (Fig. S2). The main goal of the current work is to explore the basis for inhibitor selectivity for different γ-secretases, and selectivity was consistent in the assays at the two sites (Fig. S2).
(§6) Standard 96-well SECTOR plates (MSD) were coated with 1.5 μg/ml anti-Aβ JRFcAβ40/28 capture antibody in a final volume of 50 μl of PBS 0.05% Tween 20. After overnight incubation at 4 °C, the plates were five times rinsed with PBS 0.05% Tween 20 and blocked with 150 μl per well of casein buffer (PBS with 1% casein, pH 7.4) for 4 h at room temperature. Standards (synthetic human Aβ 1–40) were diluted in culture media. […]

In assay [5] the target is T5, PSEN1 I387A–APH1A γ-secretase complex (Homo sapiens, UniProt P49768, I387A).
T5 construct: expressed in transfected cells; host or cells: Psen1/2 double KO/Aph1ABC triple KO MEFs, pools without clonal selection
Kind of assay: Aβ40 secretion, MEF cell pool restored with PSEN1 I387A–APH1A. The following applies: decimal comma; for IC50: PSEN1 I387A (TM7)–APH1A cell pool, N = 3 to 4, mean (95% CI). How it is done: as §1, §2, §3

The target of assay [6] is T6, PSEN1 WT–APH1A γ-secretase complex (Homo sapiens, UniProt P49768).
T6 construct: expressed in transfected cells; host or cells: Psen1/2 double KO/Aph1ABC triple KO MEFs
Kind of assay: Aβ40 secretion, MEF cell pool restored with PSEN1 WT–APH1A. Conditions: decimal comma; for IC50 fold change to WT: PSEN1 WT–APH1A cell pool (reference); for IC50: PSEN1 WT–APH1A cell pool, N = 3 to 4, mean (95% CI). How it is done:
as §1, §4, §5, §6

The target of assay [7] is T7, PSEN1 L166A–APH1A γ-secretase complex (Homo sapiens, UniProt P49768, L166A).
T7 construct: expressed in transfected cells; host or cells: Psen1/2 double KO/Aph1ABC triple KO MEFs, pools without clonal selection
Put plainly: Aβ40 secretion, MEF cell pool restored with PSEN1 L166A–APH1A. The following applies: PSEN1 L166A (TM3)–APH1A cell pool; N = 3 to 4; mean (95% CI); decimal comma. The procedure:
as §1
(§7) Conditional Psen1/2 double KO mice were crossed with conditional Aph1ABC triple KO mice ([29], [52], [58], [59]). At embryonic day 7.5, embryos were dissected and dissociated, and cells were plated in the presence of Dulbecco’s modified Eagle’s medium (DMEM)/F12 50% fetal calf serum (FCS) (Invitrogen). Primary MEFs were immortalized by transduction with LargeT antigen. Psen1/2 double KO/Aph1ABC triple KO MEFs were generated by transduction with a Cre-GFP–expressing adenoviral vector, and GFP-positive MEFs were sorted by fluorescence-activated cell sorting analysis. Psen1/2 Aph1ABC-deficient MEFs were maintained in DMEM/f12 10% FCS. […]
as §3

The target in assay [8] is T8, PSEN1 M146A–APH1A γ-secretase complex (Homo sapiens, UniProt P49768, M146A).
T8 construct: expressed in transfected cells; host or cells: Psen1/2 double KO/Aph1ABC triple KO MEFs, pools without clonal selection
Kind of assay: Aβ40 secretion, MEF cell pool restored with PSEN1 M146A–APH1A. The following applies: decimal comma; for IC50: PSEN1 M146A (TM2)–APH1A cell pool, N = 3 to 4, mean (95% CI); for IC50 fold change to WT: PSEN1 M146A–APH1A cell pool. How it is done:
as §1, §4
as §3, with “(DMSO). […] MEF cells were plated in DMEM F12 supplemented with 10% FCS at 10,000 cells per well in 96-well clear bottom plates in the late afternoon and cultured for 16 h at 37 °C, 5% CO2.” for “(DMSO).”

For assay [9], the target named is T9, PSEN1 S169A–APH1A γ-secretase complex (Homo sapiens, UniProt P49768, S169A).
T9 construct: expressed in transfected cells; host or cells: Psen1/2 double KO/Aph1ABC triple KO MEFs, pools without clonal selection
Kind of assay: Aβ40 secretion, MEF cell pool restored with PSEN1 S169A–APH1A. Conditions: PSEN1 S169A (TM3)–APH1A cell pool; N = 3 to 4; mean (95% CI); decimal comma. How it is done: as §1, §7, §3

These results are taken from article PMC10318456, “Selective inhibitors of the PSEN1–gamma-secretase complex” (The Journal of Biological Chemistry, 2023).

Several values for one entry are separate records, joined by “and”; a condition that tells them apart may be missing. Equal entries are not always repeated.

A word on the IC50: it is the concentration needed to halve the response being measured. Turning to `O=S(=O)(c1ccc(Cl)cc1)N1[C@H]2CC[C@@H]([C@H]1c1ccc(C(F)(F)F)cc1)[C@@H](O)C2` [(+)-9b], the IC50 in assay [1] stood at 0.403 µM; in [2], 0.015 µM; in assay [3], 0.077 µM; in [5] it was 0.283 µM; in [6] it was 0.029 µM; in assay [7], 0.642 µM. Also, the IC50 turned out to be 0.031 µM in assay [8] and 0.0078 µM in assay [9]. Further, the “IC50 fold change to WT” value in [2] (PSEN1 I168A–APH1A cell pool) is on record as 0,511 fold; in assay [3] (PSEN1 L173A–APH1A cell pool), 2,658 fold; in assay [6], 1 fold; in assay [8], 1,076 fold. Besides, the “increase in binding affinity by alanine substitution of L172” value in assay [4] amounted to 3.1 fold.

On to `C[C@H](NC(=O)Cc1cc(F)cc(F)c1)C(=O)N[C@H](C(=O)OC(C)(C)C)c1ccccc1` [DAPT], for which the concentration for half-maximal inhibition (IC50) amounted to 0.277 µM in [1]; 0.043 µM in [2]; 0.028 µM in [3]; 0.0036 µM in [4] (PSEN1 L172A (TM3)–APH1A cell pool, N = 3 to 4, mean (95% CI), decimal comma); 0.882 µM in assay [5]; 0.169 µM in assay [6]. The IC50 in assay [7] came to 1.37 µM; in [8], 0.234 µM; in [9], 0.026 µM. The “IC50 fold change to WT” value is 1,642 fold in [1] (PSEN1 F388A–APH1A cell pool); 5,225 fold and > 3 fold in assay [5] (PSEN1 I387A–APH1A cell pool); 1 fold in assay [6]; 1,386 fold in [8]. For the same compound, the “increase in binding affinity by alanine substitution of L172” value in assay [4] is 47 fold.
